The test addresses T1, A2A receptor (Sus scrofa, UniProt K9IW67).
T1 construct: from tissue; host or cells: pig striatum membranes
The experiment in a line: affinity for the A2A receptor in a pig striatum membrane prep (displacement of tritiated antagonist ZM 241385). It is filed as binding. The note with it: pig striatal membranes, adenosine deaminase, 50 mM Tris pH 7.4, 2 nM tritiated ZM 241385, 23° C. for 2 h. The protocol: Compositions of this invention were assayed to determine their affinity for the A2A receptor in a pig striatum membrane prep. 0.2 mg of pig striatal membranes were treated with adenosine deaminase and 50 mM Tris buffer (pH=7.4) followed by mixing. To the pig membranes was added 2 μL of serially diluted DMSO stock solution of the compounds of this invention at concentrations ranging from 100 μM to 10 nM or the control received 2 μL of DMSO alone, then the tritiated antagonist ZM 241385 in Tris buffer (50 mM, pH of 7.4) was added to achieve a final concentration of 2 nM . After incubation at 23° C. for 2 h, the solutions were filtered using a membrane harvester using multiple washing of the membranes (3×). The filter disks where counted in scintillation cocktail affording the amount of displacement of tritiated ZM by the competitive binding compositions of this invention. Greater than a 5 point curve was used to generate IC50's and the number of experiments (n) is indicated in the column marked in Table 1 below.
T1 sequence (K9IW67 1-409): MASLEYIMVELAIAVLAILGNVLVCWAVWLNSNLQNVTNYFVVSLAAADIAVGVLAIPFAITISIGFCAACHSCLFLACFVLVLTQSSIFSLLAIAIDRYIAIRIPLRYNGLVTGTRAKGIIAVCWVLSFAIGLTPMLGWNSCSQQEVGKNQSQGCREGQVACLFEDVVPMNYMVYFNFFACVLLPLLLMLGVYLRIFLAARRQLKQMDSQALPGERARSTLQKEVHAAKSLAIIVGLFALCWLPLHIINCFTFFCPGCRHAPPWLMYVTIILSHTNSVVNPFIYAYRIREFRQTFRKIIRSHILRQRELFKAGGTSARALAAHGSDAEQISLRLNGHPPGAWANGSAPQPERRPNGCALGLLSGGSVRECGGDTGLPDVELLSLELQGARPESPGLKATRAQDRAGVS
The compound `Nc1nc(C#CCOc2ccccc2-c2ccccc2)nc2c1ncn2[C@@H]1O[C@H](CO)[C@@H](O)[C@H]1O` [Compound 10, (4S,2R,3R,5R)-2-{6-amino-2-[3-(2-phenylphenoxy)prop-1-ynyl]purin-9-yl}-5-(hydroxymethyl)oxolane-3,4-diol] showed an inhibitory constant (Ki) of 100 to 1000 nM. Then `Nc1nc(C#CCOc2ccccc2)nc2c1ncn2[C@@H]1O[C@H](CO)[C@@H](O)[C@H]1O` [Compound 11, (4S,2R,3R,5R)-2-[6-amino-2-(3-phenoxyprop-1-ynyl)purin-9-yl]-5-(hydroxymethyl)oxolane-3,4-diol], with 10 to 100 nM. As for `N#Cc1ccc(OCC#Cc2nc(N)c3ncn([C@@H]4O[C@H](CO)[C@@H](O)[C@H]4O)c3n2)cc1` [Compound 12, 4-(3-{9-[(4S,2R,3R,5R)-3,4-dihydroxy-5-(hydroxymethyl)oxolan-2-yl]-6-aminopurin-2-yl}prop-2-ynyloxy)benzenecarbonitrile], the inhibitory constant (Ki) lay within 100 to 1000 nM.

On to `Nc1nc(C#CCOc2ccc(-c3ccccc3)cc2)nc2c1ncn2[C@@H]1O[C@H](CO)[C@@H](O)[C@H]1O` [Compound 13, (4S,2R,3R,5R)-2-{6-amino-2-[3-(4-phenylphenoxy)prop-1-ynyl]purin-9-yl}-5-(hydroxymethyl)oxolane-3,4-diol], for which the inhibition constant (Ki) lay within 1000 to 10000 nM. The compound `Nc1nc(C#CCOc2ccccc2Cc2ccccc2)nc2c1ncn2[C@@H]1O[C@H](CO)[C@@H](O)[C@H]1O` [Compound 14] returned a Ki of 100 to 1000 nM.

Regarding `Nc1nc(C#CCOc2cccc3c2OCO3)nc2c1ncn2[C@@H]1O[C@H](CO)[C@@H](O)[C@H]1O` [Compound 15, 2-[2-(3-(2H-benzo[2,3-d]1,3-dioxolen-4-yloxy)prop-1-ynyl)-6-aminopurin-9-yl](4S,2R,3R,5R)-5-(hydroxymethyl)oxolane-3,4-diol], the Ki is 10 to 100 nM. Then `CC(C)(C)c1cc(OCC#Cc2nc(N)c3ncn([C@@H]4O[C@H](CO)[C@@H](O)[C@H]4O)c3n2)cc(C(C)(C)C)c1` [Compound 16, (4S,2R,3R,5R)-2-(6-amino-2-{3-[3,5-bis(tert-butyl)phenoxy]prop-1-ynyl}purin-9-yl)-5-(hydroxymethyl)oxolane-3,4-diol], with 1000 to 10000 nM.

For orientation: Ki means the dissociation constant of the complex between target and ligand, obtained from inhibition or displacement.

The record behind these values is US6180615A, “Propargyl phenyl ether A2A receptor agonists” (CV Therapeutics, Inc., priority 1999, dated 2001).
